The subject of assay [1] is mouse colon cancer Colon 26 cells. Description: Test of anticachexia effects in mice bearing mouse colon cancer Colon 26 cells. Type of assay: in vivo. Particulars: for Inhibition of mouse tumor cachexia and recovery of body weight loss (in words): Example 4, written in present tense, no data; for Body Weight Recovery Rate (%): day 19, (Δgt−Δgc1)/(Δgc2−Δgc1)×100; for Weight Gain (Δg): day 19 after tumor cell transplantation, female CDF1 mice 8 weeks old.
Excerpt: The test animals were CDF1 mice (females, 8 weeks old). They were employed in groups of 10 for each test. 1×10^6 mouse colon cancer Colon 26 cells were transplanted subcutaneously into each animal.
The test compounds were Compounds No. 1-94 and 2-78 as shown above in Tables 1 and 2, respectively, and having the following formulae: […]
Each test compound was suspended in sterilized distilled water containing 0.5% w/v carboxymethyl cellulose (CMC) and administered orally once per day starting on the day of the tumor cell transplantation.
Each test animal was weighed immediately after tumor cell transplantation, and the weight (A g) was recorded. Each animal was then weighed on day 19 after tumor cell transplantation, and the weight (B g) was recorded. The weight gain on day 19 after tumor cell transplantation was calculated as B−A=Δgt for the test animals. The experiment was repeated with two control groups: the first control group (control group 1) was transplanted with the tumor cells but were not treated with any test compound, and the weight gain is reported as Δgc1; the second control group (control group 2) were not transplanted with the tumor cells and were not treated with any test compound, and the weight gain is reported as Δgc2. The body weight recovery rate was determined according to the following formula based on the weight gain on day 19 after tumor cell transplantation, and this value was used as an indicator of the anticachexia effect. Body weight recovery rate (%)=(Δgt−Δgc1)/(Δgc2−Δgc1)×100
(§1) The procedure described in Example 1 was repeated, but using the compound of formula (III) as the test compound, and comparing the weight gain (Δgt) of the test group of animals to which the compound of formula (III) had been administered with a control group (Δgc) into which the tumor cells had been transplanted but to which no anti-tumor compound had been administered. The test animals were female CDF1 mice, 16 weeks old. Also, the weight gain was measured 22 days after tumor transplantation. The average body weight of each group of animals immediately after tumor transplantation was 25 to 26 g.
as §1, with “Example 2” for “Example 1”, “formula (IV)” for “formula (III)”, “mice, 7” for “mice, 16”, “measured 15” for “measured 22”, “was 20” for “was 25”, “to 21” for “to 26”
Test compounds [the compounds of formula (V), (VI), (VII), (VIII), (IX), (X), (XI), (XII), (XIII) and (XIV)] are administered in the same manner as described in Example 2.

Assay [2] has the same test system. The assay can be described thus: Life-prolonging activity test in mice bearing Colon 26 cells. Type of assay: in vivo. The following applies: for Life-prolongation (in words): Example 7, animals of Examples 3 and 4, present tense, no data; for Life-prolonging Index (%) / Survival Period (median: days): mice of Example 1; for Life-prolonging Index (%): (St/Sc−1)×100; for Survival Period (median: days): untreated 29.0. On the procedure:
Observation of the mice used in Example 1 above was continued. The life-prolonging index was determined, based on the number of days each mouse survived, and this value was then used as an indicator of the life-prolonging effects of the test compounds.
It should be noted that, in the case of the group of mice treated with a test compound, oral administration of the respective compound once daily was continued on day 20 after tumor cell transplantation and beyond as well. Life-prolonging index (%)=(St/Sc−1)×100 • St: Median value of survival time (days) of the group of mice treated with a test compound • Sc: Median value of survival time (days) of the control group which were […].
The experiment reported in Example 5 was repeated with the animals used in Example 2. In the case of the group of mice treated with a test compound, oral administration of the respective compound once daily was continued on day 23 after tumor cell transplantation and beyond as well.
The experiment reported in Example 5 is repeated with the animals used in Examples 3 and 4.

The structures appear in SMILES notation.

Regarding `Cc1nc(C2CCCCC2)c(-c2ccc(S(N)(=O)=O)c(F)c2)o1` [(VIII), 4-(4-cyclohexyl-2-methyloxazol-5-yl)-2-fluorobenzenesulfonamide], the “Inhibition of mouse tumor cachexia and recovery of body weight loss (in words)” value (from here on “Inhibition … of body weight loss (in words)”) in assay [1] was “inhibit mouse tumor cachexia and recover loss of average of body weight”. Moreover, the “Life-prolongation (in words)” value in assay [2] is reported as “exhibit pronounced life-prolongation”.

On to `Cc1onc(-c2ccccc2)c1-c1ccc(S(N)(=O)=O)cc1` [(XIV), 4-[5-methyl-3-phenylisoxazol-4-yl)benzenesulfonamide], for which the “Inhibition … of body weight loss (in words)” value in assay [1] was “inhibit mouse tumor cachexia and recover loss of average of body weight”. Also, in assay [2], the “Life-prolongation (in words)” value is recorded as “exhibit pronounced life-prolongation”.

Regarding `CS(=O)(=O)Nc1ccc([N+](=O)[O-])cc1Oc1ccccc1` [(VII), N-(4-Nitro-2-phenoxyphenyl)methanesulfonamide], the “Inhibition … of body weight loss (in words)” value in assay [1] is “inhibit mouse tumor cachexia and recover loss of average of body weight”. Besides, the “Life-prolongation (in words)” value in assay [2] is reported as “exhibit pronounced life-prolongation”.

Regarding `CS(=O)(=O)c1ccc(C2=C(c3ccc(F)cc3)CCC2)cc1` [(XI), 1-(4-methanesulfonylphenyl)-2-(4-fluorophenyl)cyclopentene], in assay [1], the “Inhibition … of body weight loss (in words)” value was “inhibit mouse tumor cachexia and recover loss of average of body weight”. The “Life-prolongation (in words)” value in assay [2] is “exhibit pronounced life-prolongation”.

`Cc1cnc(NC(=O)C2=C(O)c3ccccc3S(=O)(=O)N2C)s1` [(VI), 4-hydroxy-2-methyl-N-(5-methylthiazol-2-yl)-2H-1,2-benzothiazine-3-carboxamide-1,1-dioxide]: in assay [1], the “Inhibition … of body weight loss (in words)” value was “inhibit mouse tumor cachexia and recover loss of average of body weight”. Further, the “Life-prolongation (in words)” value in assay [2] is reported as “exhibit pronounced life-prolongation”.

In the case of `CSc1ccc(-n2cc(C)cc2-c2ccc(S(N)(=O)=O)cc2)cc1` [Compound 1-94, 4-methyl-1-(4-methylthiophenyl)-2-(4-sulfamoylphenyl)pyrrole], the “Body Weight Recovery Rate (%)” value in assay [1] (1 mg/kg oral once per day) turned out to be 78%; in assay [1] (3 mg/kg oral once per day), 89%; in assay [1] (10 mg/kg oral once per day), 98%. In addition, the results for the “Weight Gain (Δg)” value in assay [1] (1 mg/kg oral once per day), in assay [1] (3 mg/kg oral once per day) and in assay [1] (10 mg/kg oral once per day) were 2.2 g, 2.7 g and 3.1 g, respectively. Also, the entries for the “Life-prolonging Index (%)” value in assay [2] (1 mg/kg oral once daily), in assay [2] (3 mg/kg oral once daily) and in assay [2] (10 mg/kg oral once daily) were 67%, 21% and 55%, respectively. For the same compound, the “Survival Period (median: days)” value in assay [2] (1 mg/kg oral once daily) was 48.5 days; in assay [2] (3 mg/kg oral once daily), 35.0 days; in assay [2] (10 mg/kg oral once daily), 45.0 days.

As for `CS(=O)(=O)Nc1cc2occ(NC=O)c(=O)c2cc1Oc1ccccc1` [(IX), N-(3-formylamino-4-oxo-6-phenoxy-4H-1-benzopyran-7-yl)methanesulfonamide], the “Inhibition … of body weight loss (in words)” value in assay [1] was “inhibit mouse tumor cachexia and recover loss of average of body weight”. In addition, the “Life-prolongation (in words)” value in assay [2] is recorded as “exhibit pronounced life-prolongation”.

For `CCOc1ccc(-c2cc(C)cn2-c2ccc(S(N)(=O)=O)cc2)cc1` [Compound 2-78], the figures for the “Body Weight Recovery Rate (%)” value in assay [1] (1 mg/kg oral once per day), in assay [1] (3 mg/kg oral once per day) and in assay [1] (10 mg/kg oral once per day) were 85%, 85% and 88%, respectively. The “Weight Gain (Δg)” value in assay [1] (1 mg/kg oral once per day) is 2.5 g; in assay [1] (3 mg/kg oral once per day) it was 2.5 g; in assay [1] (10 mg/kg oral once per day), 2.6 g. In addition, the results for the “Life-prolonging Index (%)” value in assay [2] (1 mg/kg oral once daily), in assay [2] (3 mg/kg oral once daily) and in assay [2] (10 mg/kg oral once daily) were 55%, 74% and 67%, respectively. Also, the “Survival Period (median: days)” value came to 45.0 days in assay [2] (1 mg/kg oral once daily), 50.5 days in assay [2] (3 mg/kg oral once daily) and 48.5 days in assay [2] (10 mg/kg oral once daily).

The values above are taken from patent US7745481B2, “Methods and compositions for the treatment and prevention of tumors, tumor-related disorders and cachexia” (Daiichi Sankyo Company, Limited, priority 1997, dated 2010).
